Experimental data reported in patent US20230149452A1, “STRUCTURALLY DEFINED, BETTER TOLERATED, ORALLY ADMINSTERED, PROCESSED ARSENOLITE, A PROCESS FOR ITS PREPARATION, A PHARMACEUTICAL COMPOSITION AND USES THEREOF” (priority 2020, published 2023).

Legend:
[1] = tested on: chick embryo yolk sac membrane (YSM) blood vessels; test: In ovo chick embryo yolk sac membrane (YSM) angiogenesis model; assay type: in vivo, white Leghorn breed of fowls; conditions: all tested concentrations, 24 hr after treatment, in comparison with control
[2] = Bulk density, ASTM D6683-19; assay type: physicochemical
[3] = patients; cited from earlier work

Avastin: monoclonal antibody targeted against VEGF, approved by FDA for therapeutic intervention in cancer
number of quaternary blood vessels [1]: significant decrease

Arsenic tri oxide [ATO]
bulk density [2]: 1.3336 g/mL
dyspepsia [3]: 24%
elevation in liver enzymes [3]: 42%
headache [3]: 29%
herpes zoster reactivation [3]: 13%
menorrhagia [3]: 4%
rash [3]: 11%
